Laboratory results published in US20230406885A1, “CYCLIC PEPTIDES FOR TRAPPING INTERLEUKIN-1 BETA” (MERCK SHARP & DOHME LLC, priority 2022, published 2023).
pIC50: −log10 of the molar value. *1 amine or outer side, *2 acyl side, *3 side chain or, on linkers, in order; H or OH if unused. Where a SMILES comes first, the peptide text is derived from it. [ ]: non-standard residue; d: D form. Trp(βS-Me,4-F) = C[C@@H](c1c[nH]c2cccc(F)c12)[C@H](N)C(=O)O; Bip(4'-COOH) = N[C@@H](Cc1ccc(-c2ccc(C(=O)O)cc2)cc1)C(=O)O; Phe(3-CH2NH2) = O=C([C@H](Cc1cccc(CN[*:3])c1)N[*:1])[*:2]; Phe(3-allyloxy) = C=CCOc1cccc(C[C@H](N)C(=O)O)c1; Phe(3-Ph) = N[C@@H](Cc1cccc(-c2ccccc2)c1)C(=O)O; Phe(4-COOH) = N[C@@H](Cc1ccc(C(=O)O)cc1)C(=O)O; Pro(4R-NH2) = N[C@H]1CN[C@H](C(=O)O)C1; hTyr = N[C@@H](CCc1ccc(O)cc1)C(=O)O; dDab = NCC[C@@H](N)C(=O)O; dNMeA = CN[C@H](C)C(=O)O

Target: T1, Recombinant human IL-1β (Homo sapiens, UniProt P01584)
T1 construct: purchased BioLegend 579404
T1 sequence (P01584 117-269): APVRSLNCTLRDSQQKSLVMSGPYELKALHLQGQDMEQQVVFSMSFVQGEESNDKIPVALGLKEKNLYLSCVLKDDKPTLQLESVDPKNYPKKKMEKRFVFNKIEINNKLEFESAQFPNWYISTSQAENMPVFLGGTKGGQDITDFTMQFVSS
Assay: IL-6 assay in MRC5 cells: inhibition of IL-1β induced IL-6 secretion (AlphaLISA)
Format: cell-based
Conditions: inhibition of IL-1β induced IL-6 secretion in MRC5 cells; IL-1β pre-incubated 1 hour with compound; read-out: MRC5 IC50
Outline: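 IL-1β at 2×EC80 in seeding medium (EMEM, 0.025% BSA) preincubated 1 h at ambient temperature with compound, then 3000 MRC5 cells/well added and incubated overnight at 37 °C, 5% CO2. IL-6 in conditioned medium quantified by AlphaLISA; IC50 from 4-parameter logistic fit.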

SMILES	pIC50
C[C@@H]1C(=O)NCC(=O)N[C@@H](Cc2ccc(-c3ccc(C(=O)O)cc3)cc2)C(=O)N[C@@H](Cc2cccc(CN)c2)C(=O)N[C@@H](CO)C(=O)N[C@H](C)C(=O)N[C@@H](CCc2ccc(O)cc2)C(=O)N[C@@H](Cc2ccc(-c3ccc(C(=O)O)cc3)cc2)C(=O)N[C@@H](Cc2c[nH]c3ccccc23)C(=O)N[C@@H](Cc2ccc(C(=O)O)cc2)C(=O)NCC(=O)N2C[C@H](N)C[C@H]2C(=O)N[C@@H]([C@@H](C)c2c[nH]c3cccc(F)c23)C(=O)N[C@@H](CC(=O)O)C(=O)N1C [Example 74] (cyclo([Bip(4'-COOH)]W[Phe(4-COOH)]G[Pro(4R-NH2)][Trp(βS-Me,4-F)]D[dNMeA]G[Bip(4'-COOH)][Phe(3-CH2NH2)]S[dA][hTyr]))	9.53
CC(C)C[C@@H]1NC(=O)[C@H](Cc2cccc(-c3ccccc3)c2)NC(=O)[C@H](Cc2ccc(-c3ccc(C(=O)O)cc3)cc2)NC(=O)CNC(=O)[C@@H](C)N(C)C(=O)[C@H](CC(=O)O)NC(=O)[C@H]([C@@H](C)c2c[nH]c3cccc(F)c23)NC(=O)[C@@H]2C[C@@H](N)CN2C(=O)CNC(=O)[C@H](Cc2ccc(C(=O)O)cc2)NC(=O)[C@H](Cc2c[nH]c3ccccc23)NC(=O)[C@H](Cc2ccc(-c3ccc(C(=O)O)cc3)cc2)NC(=O)[C@H](CCc2ccc(O)cc2)NC(=O)[C@@H](C)NC1=O [Example 75] (cyclo([Bip(4'-COOH)]W[Phe(4-COOH)]G[Pro(4R-NH2)][Trp(βS-Me,4-F)]D[dNMeA]G[Bip(4'-COOH)][Phe(3-Ph)]L[dA][hTyr]))	9.78

Now those with a higher pIC50, led by results:

pIC50	SMILES
9.91	C=CCOc1cccc(C[C@@H]2NC(=O)[C@H](Cc3ccc(-c4ccc(C(=O)O)cc4)cc3)NC(=O)CNC(=O)[C@@H](C)N(C)C(=O)[C@H](CC(=O)O)NC(=O)[C@H]([C@@H](C)c3c[nH]c4cccc(F)c34)NC(=O)[C@@H]3C[C@@H](N)CN3C(=O)CNC(=O)[C@H](Cc3ccc(C(=O)O)cc3)NC(=O)[C@H](Cc3c[nH]c4ccccc34)NC(=O)[C@H](Cc3ccc(-c4ccc(C(=O)O)cc4)cc3)NC(=O)[C@H](CCc3ccc(O)cc3)NC(=O)[C@@H](C)NC(=O)[C@H](CC(C)C)NC2=O)c1 [Example 76] (cyclo([Bip(4'-COOH)]W[Phe(4-COOH)]G[Pro(4R-NH2)][Trp(βS-Me,4-F)]D[dNMeA]G[Bip(4'-COOH)][Phe(3-allyloxy)]L[dA][hTyr]))
10.22	C[C@@H]1C(=O)NCC(=O)N[C@@H](Cc2ccc(-c3ccc(C(=O)O)cc3)cc2)C(=O)N[C@@H](Cc2c[nH]c3ccccc23)C(=O)NCC(=O)N[C@H](CCN)C(=O)N[C@@H](CCc2ccc(O)cc2)C(=O)N[C@@H](Cc2ccc(-c3ccc(C(=O)O)cc3)cc2)C(=O)N[C@@H](Cc2c[nH]c3ccccc23)C(=O)N[C@@H](Cc2ccc(C(=O)O)cc2)C(=O)NCC(=O)N2C[C@H](N)C[C@H]2C(=O)N[C@@H]([C@@H](C)c2c[nH]c3cccc(F)c23)C(=O)N[C@@H](CC(=O)O)C(=O)N1C [Example 77] (cyclo([Bip(4'-COOH)]W[Phe(4-COOH)]G[Pro(4R-NH2)][Trp(βS-Me,4-F)]D[dNMeA]G[Bip(4'-COOH)]WG[dDab][hTyr]))
10.14	CC(C)C[C@@H]1NC(=O)[C@H](Cc2c[nH]c3ccccc23)NC(=O)[C@H](Cc2ccc(-c3ccc(C(=O)O)cc3)cc2)NC(=O)CNC(=O)[C@@H](C)N(C)C(=O)[C@H](CC(=O)O)NC(=O)[C@H]([C@@H](C)c2c[nH]c3cccc(F)c23)NC(=O)[C@@H]2C[C@@H](N)CN2C(=O)CNC(=O)[C@H](Cc2ccc(C(=O)O)cc2)NC(=O)[C@H](Cc2c[nH]c3ccccc23)NC(=O)[C@H](Cc2ccc(-c3ccc(C(=O)O)cc3)cc2)NC(=O)[C@H](CCc2ccc(O)cc2)NC(=O)[C@@H](C)NC1=O [Example 78] (cyclo([Bip(4'-COOH)]W[Phe(4-COOH)]G[Pro(4R-NH2)][Trp(βS-Me,4-F)]D[dNMeA]G[Bip(4'-COOH)]WL[dA][hTyr]))
